# Entries after “also recorded” stand apart in the source; their conditions may differ.
# How the values were obtained:
# IL-6 [1] = test: Initial drug screen (Prestwick Chemical Library), IL-6 ELISA of medium; type: cell-based, human; details: 2.5 μM, 48 hours, HCA2 fibroblasts, 0.2% serum
# Description: The initial drug screen was performed in a 96-well format using automated liquid handling with a Biomek FX (Beckman Coulter, CA). Senescent cells were plated 24 hours after X-irradiation at 7,500 cells per well in 96-well plates. Six days after plating the senescent cells, the pre-senescent cells were plated at 7,500 cells per well in 96-well plates. Twenty-four hours after pre-senescent plating, both pre-senescent and senescent cells were washed and incubated in low (0.2%) serum for 48 hours to arrest cell proliferation of the pre-senescent cells. […] Forty-eight hours after compound addition, the medium in each well was removed and frozen for assay by ELISA to quantitate the levels of IL-6. The cells, which remained in the wells after the medium was removed, were lysed and ATP levels were measured (ATPlite 1-step assay, Perkin Elmer, MA) to exclude compounds that lowered IL-6 through toxicity (cell death). Experimental wells in each plate were normalized to plate mean or same-plate DMSO controls for the ELISA and ATP assays, respectively.
# To identify small molecules that may be potential SASP modulators, a screening strategy that entailed administering compounds to parallel 96-well plates containing human fibroblasts (strain HCA2) that were either quiescent or senescent was developed. […] After 48 hours, the medium from each well was removed, and the cells were lysed. […] Cell lysates were assayed for ATP as a surrogate for cell number.
# HCA2 human fibroblasts = details: 2.5 μM, 48 hours
# Description: The initial drug screen was performed in a 96-well format using automated liquid handling with a Biomek FX (Beckman Coulter, CA). Senescent cells were plated 24 hours after X-irradiation at 7,500 cells per well in 96-well plates. Six days after plating the senescent cells, the pre-senescent cells were plated at 7,500 cells per well in 96-well plates. Twenty-four hours after pre-senescent plating, both pre-senescent and senescent cells were washed and incubated in low (0.2%) serum for 48 hours to arrest cell proliferation of the pre-senescent cells. Drugs from the Prestwick Chemical Library, which contains 1120 bio-available compounds in DMSO, were given to the cells at 2.5 μM in media containing 0.2% serum. Forty-eight hours after compound addition, the medium in each well was removed and frozen for assay by ELISA to quantitate the levels of IL-6. The cells, which remained in the wells after the medium was removed, were lysed and ATP levels were measured (ATPlite 1-step assay, Perkin Elmer, MA) to exclude compounds that lowered IL-6 through toxicity (cell death). Experimental wells in each plate were normalized to plate mean or same-plate DMSO controls for the ELISA and ATP assays, respectively.
# To identify small molecules that may be potential SASP modulators, a screening strategy that entailed administering compounds to parallel 96-well plates containing human fibroblasts (strain HCA2) that were either quiescent or senescent was developed. The compounds tested comprised the Prestwick Chemical Library, a collection of approximately 1,120 Federal Drug Administration-approved drugs. The compounds were added to duplicate wells at a single concentration (2.5 μM). After 48 hours, the medium from each well was removed, and the cells were lysed. […] Cell lysates were assayed for ATP as a surrogate for cell number.
# senescent cells [2] = test: Doxorubicin-induced senescent cells in tissues of p16-3MR mice (mRFP and p16INK4a mRNA); type: in vivo, mouse; details: doxorubicin 10 mg/kg vs untreated control mice
# Excerpt: Similar results were observed when the senescent cell accumulation was induced with the chemotherapeutic agent, doxorubicin. […] Various tissues were isolated (liver, heart, lung, kidney, and spleen) and measured for abundance of mRNAs encoding mRFP and p16INK4a as markers for senescent cells (see FIGS. 5A and 5B, respectively).
# B16 mouse melanoma cells [3] = test: Subcutaneous B16 melanoma in doxorubicin-treated p16-3MR mice; type: in vivo; details: for p16INK4a and mRFP expression in skin biopsies / tumor diameters: doxorubicin 10 mg/kg with or without GCV; for tumor diameters / growth/size of subcutaneous B16 melanoma tumors: 12 days after B16 injection; for growth/size of subcutaneous B16 melanoma tumors: doxorubicin 10 mg/kg, GCV 25 mg/kg daily for 7 days starting 7 days later
# Description: Briefly, p16-3MR transgenic mice were treated with vehicle (ctrl) or 10 mg/kg doxorubicin. Seven days after doxorubicin treatment, mice were treated daily with GCV (25 mg/kg) for 7 days or vehicle only. 3 days after the last GCV treatment, 4×10^5 B16 mouse melanoma cells were injected subcutaneously into the p16-3MR transgenic mice, and mice were sacrificed after 12 days for analysis.
# senescent cells [4] = test: Detection and clearance of senescent cells in irradiated p16-3MR transgenic mice (rLUC bioluminescence, SASP biomarker RNA); type: in vivo, mouse
# Description: Briefly, a group of p16-3MR transgenic mice were exposed to whole body ionizing radiation (7 Gy X-ray) and a control group of p16-3MR transgenic mice were mock-irradiated. After three months, the mice were treated with GCV (25 mg/kg) or vehicle only, and then at least two weeks later bioluminescence in tissues was examined after administering the rLUC substrate.
# B16 mouse melanoma cells [5] = test: B16 melanoma tail-vein injection in irradiated p16-3MR mice (primary tumors and metastases, fLUC bioluminescence); type: in vivo
# Description: Briefly, 10^6 B16 mouse melanoma cells, a highly aggressive cell line that is syngeneic with p16-3MR transgenic mice (C57B16 background), that express firefly luciferase (fLUC, to enable their detection by bioluminescence) were injected into the tail vein of the p16-3MR transgenic mice approximately three months after being either mock irradiated or irradiated, as described in Example 2. Irradiated mice were treated daily with GCV (25 mg/kg) or vehicle only for 7 days, and then 3 days following the last GCV dose, B16 mouse melanoma cells were injected into the mice. B16 mouse melanoma cells first colonize the lung, where they form primary tumors approximately two weeks after injection, and thereafter metastasize to distal tissues to form secondary tumors in, for example, the pancreas, liver and visceral fat. The bioluminescence markers, fLUC and rLUC are distinguishable because the enzymes use different substrates.
# IL-6 [6] = test: IL-6 ELISA of conditioned media from X-irradiated senescent HCA2 fibroblasts; type: cell-based, human; details: 50 nM corticosterone or 100 nM cortisol; rIL-1α given six days after irradiation, 24 hours
# Description: To validate glucocorticoids as SASP regulators, they were added within 15 min after irradiation (unless otherwise indicated). For cells induced to senesce by MKK6 or RAS overexpression, glucocorticoid treatment started 16 hours after infection. Glucocorticoids were re-added in fresh media every other day. Six days after irradiation or selection, cells were given serum-free DMEM with or without glucocorticoid for 24 hours; the conditioned media were collected and frozen for ELISAs.
# Conditioned media were filtered and stored at −80° C. Cell numbers were determined in every experiment. ELISAs were performed using kits and procedures from PerkinElmer (IL-6 AL223F). Data were normalized and expressed as pg/ml/cell/24 h.
# To confirm the ability of corticosterone to suppress senescence-associated IL-6 secretion, fresh HCA2 fibroblast cultures were prepared, and senescence was induced by X-irradiation (10 Gy). Under these conditions, cells undergo growth arrest within 24-48 hours, but require 4-5 days before SASP components are detected in the medium (Coppe et al., 2008, PLoS Biol. 6:2853-2868; Rodier et al., 2009, Nature Cell Biol. 11:973-979; Coppe et al., 2010, PLoS ONE 5:e9188; Freund et al., 2011, EMBO J. 30:1536-1548). Varying concentrations of corticosterone were added immediately after irradiation, and the cells were maintained in the drug for 6 days. On the 6th day, the cells were incubated in serum-free medium with or without corticosterone, the conditioned medium was collected 24 h later, and the medium was assayed for IL-6 by ELISA. […] The ability of corticosterone to suppress IL-6 secretion by senescent cells was not peculiar to HCA2 cells.
# NF-κB = NF-κB reporter-luciferase transactivation assay; type: cell-based, human; details: 0.5 μM RU-486 or 2.5 ng mL^−1 IL-1α
# Description: Nuclear extracts were prepared using the nuclear extract kit (Active Motif), and NF-κB DNA binding was determined using the TransAM NF-κB p65 kit (Active Motif). For transactivation assays, cells infected with the NF-κB reporter-luciferase lentivirus were lysed in buffer (Promega), and luciferase activity was normalized to cell number, as described (Freund et al., 2011, EMBO J. 30:1536-1548).
# [7] = irradiated + GCV, eighteen days after injection
compound,measurement,setting,value
Cc1ccc(S(=O)(=O)NC(=O)NN2CCCCCC2)cc1 [tolazamide],IL-6 secretion (ELISA),IL-6 [1],suppressed IL-6 secretion
same,ATP levels,HCA2 human fibroblasts,without altering ATP levels
COc1cccc2c1C(=O)c1c(O)c3c(c(O)c1C2=O)C[C@@](O)(C(=O)CO)C[C@@H]3O[C@H]1C[C@H](N)[C@H](O)[C@H](C)O1 [doxorubicin],"mRFP and p16INK4a mRNA in liver, heart, lung, kidney, spleen",senescent cells [2],higher levels of mRFP and p16INK4a in all tissues
same,p16INK4a and mRFP expression in skin biopsies,B16 mouse melanoma cells [3],increased senescence
same,tumor diameters,B16 mouse melanoma cells [3],increased tumor sizes
same,growth/size of subcutaneous B16 melanoma tumors,B16 mouse melanoma cells [3],stimulated the growth of B16 melanoma cells; also recorded: Tumor growth was increased
"Nc1nc(O)c2ncn(COC(CO)CO)c2n1 [GCV, ganciclovir]",rLUC expression levels (bioluminescence in tissues),"senescent cells [4]; irradiated (7 Gy) p16-3MR mice, GCV 25 mg/kg three months after irradiation, lung tissue shown",comparable to unirradiated mice
same,"p16INK4a (p16), IL-6, MMP-3 and mRFP RNA expression levels",senescent cells [4]; irradiated p16-3MR mice treated with GCV,"returned p16INK4a (p16), IL-6, MMP-3 and mRFP expression levels to those found in the unirradiated control mice"
same,"metastatic B16 melanoma cells, Fat (estimated % of total area of fat)",B16 mouse melanoma cells [5]; 18 days after injection,25%
same,"metastatic B16 melanoma cells, Liver",B16 mouse melanoma cells [5]; 18 days after injection,7 ± 3.6 nodules
same,"metastatic B16 melanoma cells, Lung (luminescent nodules)","B16 mouse melanoma cells [5]; 18 days after injection, TNTC = too numerous to count",TNTC
same,B16 cells as detected by luminescence,"B16 mouse melanoma cells [5]; irradiated + GCV, day 18",still showed relatively low levels of B16 cells
same,"metastases in distal organs (liver, fat)",B16 mouse melanoma cells [5]; [7],almost devoid of metastases
same,primary lung tumors,B16 mouse melanoma cells [5]; [7],large primary lung tumors were evident
same,B16 cells as detected by luminescence,"B16 mouse melanoma cells [5]; irradiated + GCV, fifteen days after injection",relatively low levels of B16 cells
same,primary tumors and metastases,"B16 mouse melanoma cells [5]; irradiated mice, GCV 25 mg/kg daily for 7 days, 15 days after B16 injection",much smaller primary tumors and many fewer metastases
same,p16INK4a and mRFP expression in skin biopsies,B16 mouse melanoma cells [3],low levels of p16INK4a and mRFP expression
same,tumor diameters,B16 mouse melanoma cells [3],smaller tumor sizes
same,growth/size of subcutaneous B16 melanoma tumors,B16 mouse melanoma cells [3],substantially reduced the size of B16 melanoma tumors; also recorded: much smaller primary tumors
C[C@]12CC[C@@H]3c4ccc(O)cc4CC[C@H]3[C@@H]1CC[C@@H]2O [estradiol-17-beta],IL-6 secretion (ELISA),IL-6 [1],suppressed IL-6 secretion
Nc1cc(N2CCCCC2)nc(N)[n+]1[O-] [minoxidil],ATP levels,HCA2 human fibroblasts,without altering ATP levels
C[C@]12C=CC(=O)C=C1CC[C@@H]1[C@@H]2C(=O)C[C@@]2(C)[C@H]1CC[C@]2(O)C(=O)CO [prednisone],IL-6 secretion (ELISA),IL-6 [1],suppressed IL-6 secretion
same,ATP levels,HCA2 human fibroblasts,without altering ATP levels
CC(C)(C)NC(=O)[C@H]1CC[C@H]2[C@@H]3CC[C@H]4NC(=O)C=C[C@]4(C)[C@H]3CC[C@]12C [finasteride],IL-6 secretion (ELISA),IL-6 [1],suppressed IL-6 secretion
same,ATP levels,HCA2 human fibroblasts,without altering ATP levels
C/C(=C(\CCOP(=O)(O)O)SC(=O)c1ccccc1)N(C=O)Cc1cnc(C)nc1N [benfotiamine],IL-6 secretion (ELISA),IL-6 [1],suppressed IL-6 secretion
same,ATP levels,HCA2 human fibroblasts,without altering ATP levels
Recombinant IL-1α: recombinant IL-1α protein added to glucocorticoid-treated senescent cells,"IL-6 secretion suppressed by corticosterone and cortisol, added recombinant IL-1α",IL-6 [6],rescued the suppression of IL-6 secretion
same,"NF-κB transactivation activity, co-treatment with either glucocorticoid",NF-κB,rescued NF-κB transactivation activity
C[C@]12CC[C@@H](O)C[C@@H]1CC[C@@H]1[C@@H]2CC[C@]2(C)C(=O)CC[C@@H]12 [androsterone],IL-6 secretion (ELISA),IL-6 [1],suppressed IL-6 secretion
same,ATP levels,HCA2 human fibroblasts,without altering ATP levels
CCCNC(=O)NS(=O)(=O)c1ccc(Cl)cc1 [chlorpropamide],IL-6 secretion (ELISA),IL-6 [1],suppressed IL-6 secretion
same,ATP levels,HCA2 human fibroblasts,without altering ATP levels
Cc1ccc(S(=O)(=O)NC(=O)NN2CC3CCCC3C2)cc1 (stereo not drawn) [gliclazide],IL-6 secretion (ELISA),IL-6 [1],suppressed IL-6 secretion
same,ATP levels,HCA2 human fibroblasts,without altering ATP levels
C#C[C@]1(O)CC[C@H]2[C@@H]3CCC4=CC(=O)CC[C@@H]4[C@H]3CC[C@@]21CC [norgestrel-(−)-D],IL-6 secretion (ELISA),IL-6 [1],suppressed IL-6 secretion

# Source: patent publication US9884065B2, “Inhibiting activity of senescent cells using a glucocorticoid” (Buck Institute for Research on Aging, priority 2011, dated 2018)
